{"source": "patent US8063234B2", "about": "“Substituted 7-sulfanylmethyl-, 7-sulfinylmethyl- and 7-sulfonylmethylindoles and the use thereof” (Bayer Schering Pharma Aktiengesellschaft, priority 2008, dated 2011)"}
{"molecular_target": "T1, CYP3A4 (Homo sapiens, UniProt P08684)", "T1 construct": "human liver microsomes (pool from various individuals); from tissue; host or cells: human liver microsomes (pool from various individuals)", "T1 sequence (P08684 whole entry)": "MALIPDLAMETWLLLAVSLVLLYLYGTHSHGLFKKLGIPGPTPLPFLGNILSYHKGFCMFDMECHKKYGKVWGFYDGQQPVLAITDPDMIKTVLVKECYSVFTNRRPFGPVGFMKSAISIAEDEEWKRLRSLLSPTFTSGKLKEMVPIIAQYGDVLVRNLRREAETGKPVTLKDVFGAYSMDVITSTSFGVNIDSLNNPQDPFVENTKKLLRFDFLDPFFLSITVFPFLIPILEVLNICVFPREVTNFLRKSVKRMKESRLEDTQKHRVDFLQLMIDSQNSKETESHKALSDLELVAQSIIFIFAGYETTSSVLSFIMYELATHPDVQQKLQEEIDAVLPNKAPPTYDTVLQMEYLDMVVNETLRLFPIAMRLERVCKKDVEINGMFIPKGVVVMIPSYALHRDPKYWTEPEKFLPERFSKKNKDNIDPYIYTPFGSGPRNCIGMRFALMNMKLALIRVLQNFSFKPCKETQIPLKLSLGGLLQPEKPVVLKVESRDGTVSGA", "experiment": "Assay to assess irreversible CYP3A4 inhibition (mechanism-based inhibition) in human liver microsomes", "format": "in vitro ADME", "conditions": "2-20 μM, preincubation 0-50 min, 6β-hydroxytestosterone formation", "text": "8. Assay to Assess Irreversible CYP3A4 Inhibition\nCytochrom P450 enzyme inhibition, especially irreversible enzyme inhibition, also referred to as mechanism-based inhibition (MBI), is an unwanted metabolic property of a substance which may, on concurrent administration of other medicaments, lead to considerable drug interactions. Criteria for the presence of an irreversible inhibition are a time-, concentration- and cofactor- (nicotinamide adenine dinucleotide phosphate, NADPH) dependent inhibition. To this end, the compounds of the invention are incubated in vitro with human liver microsomes, the influence on the CYP3A4 activity and the metabolic degradation of the novel active ingredient is determined, and the prototypical parameters kinact, Ki and the partition ratio r are ascertained therefrom.\nThe compounds of the invention are incubated with concentrations of 2-20 μM. To this end, stock solutions of the active ingredients with a concentration of 0.2-2 mM are prepared in acetonitrile and then pipetted with a 1:100 dilution into the incubation mixture. The liver microsomes are incubated in 50 mM potassium phosphate buffer (pH 7.4) with and without NADPH-generating system consisting of 1 mM NADP^+, 5 mM glucose 6-phosphate and 1 unit of glucose 6-phosphate dehydrogenase, at 37° C. After defined preincubation times of 0-50 min, aliquots are removed from these mixtures, diluted 1:25 in a new incubation, and incubated in the presence of testosterone and new NADPH-generating system again for 20 min. These incubation mixtures are stopped with acetonitrile (final concentration about 30% v/v), and the protein is removed by centrifugation at about 15 000×g. The samples stopped in this way are either analyzed directly or stored at −20° C. until analyzed.\nThe analysis takes place by high performance liquid chromatography with mass spectrometry detection (LC-MS). The formation of 6β-hydroxytestosterone as measure of CYP3A4 activity, and the test substance still remaining is quantified. The parameters kinact, Ki and the partition ratio r are determined therefrom so as to assess the novel active ingredients in relation to MBI."}
{"smiles": "CS(=O)(=O)Cc1cccc2c(C(CCC#N)c3ccc(Cl)cc3F)c[nH]c12", "note": "(single isomer, unassigned) [Example 59-1, 4-(4-Chloro-2-fluorophenyl)-4-{7-[(methylsulfonyl)methyl]-1H-indol-3-yl}butanonitrile]", "Partition ratio r": 220}
{"smiles": "CS(=O)(=O)Cc1cc(F)cc2c(C(c3ccc(F)cc3Cl)C3CC3C#N)c[nH]c12", "note": "(single isomer, unassigned) [Example 266-1, 2-[(2-Chloro-4-fluorophenyl){5-fluoro-7-[(methylsulfonyl)methyl]-1H-indol-3-yl}methyl]cyclopropanecarbonitrile]", "Partition ratio r": ">200"}
{"smiles": "CS(=O)(=O)Cc1cccc2c(C3(C4CC4)CCc4cc(F)ccc43)c[nH]c12", "note": "(centres unmarked) [Example 107, 3-(1-Cyclopropyl-5-fluoro-2,3-dihydro-1H-inden-1-yl)-7-[(methylsulfonyl)methyl]-1H-indole]", "Partition ratio r": ">400"}
{"smiles": "CS(=O)(=O)Cc1cccc2c(C(CCC#N)c3ccc4c(c3)OC(F)(F)O4)c[nH]c12", "note": "(centres unmarked) [Example 169, 4-(2,2-Difluoro-1,3-benzodioxol-5-yl)-4-{7-[(methylsulfonyl)methyl]-1H-indol-3-yl}butanonitrile]", "Partition ratio r": ">500"}
{"smiles": "CS(=O)(=O)Cc1cccc2c(C(CCC#N)c3ccc(C(F)(F)F)cc3)c[nH]c12", "note": "(single isomer, unassigned) [Example 56-1, 4-{7-[(Methylsulfonyl)methyl]-1H-indol-3-yl}-4-[4-(trifluoromethyl)phenyl]butanonitrile]", "Partition ratio r": 100}
{"smiles": "CS(=O)(=O)Cc1cccc2c(C(CCC#N)c3ccc4sccc4c3)c[nH]c12", "note": "(centres unmarked) [Example 73, 4-(1-Benzothiophen-5-yl)-4-{7-[(methylsulfonyl)methyl]-1H-indol-3-yl}butanonitrile]", "Partition ratio r": ">500"}
{"smiles": "CCC(CCO)(c1ccc(Cl)cc1)c1c[nH]c2c(CS(C)(=O)=O)cccc12", "note": "(centres unmarked) [Example 147, 3-(4-Chlorophenyl)-3-{7-[(methylsulfonyl)methyl]-1H-indol-3-yl}pentan-1-ol]", "Partition ratio r": 90}
{"smiles": "CS(=O)(=O)Cc1cc(F)cc2c(C(c3ccc(Cl)cc3F)C3CC3C#N)c[nH]c12", "note": "(single isomer, unassigned) [Example 273-1-2, 2-[(4-Chloro-2-fluorophenyl){5-fluoro-7-[(methylsulfonyl)methyl]-1H-indol-3-yl}methyl]cyclopropanecarbonitrile]", "Partition ratio r": ">200"}
{"smiles": "CS(=O)(=O)Cc1cccc2c(C(c3ccc(Cl)cc3)C3CC3(F)F)c[nH]c12", "note": "(single isomer, unassigned) [Example 261-1, 3-[(4-Chlorophenyl)(2,2-difluorocyclopropyl)methyl]-7-[(methylsulfonyl)methyl]-1H-indole]", "Partition ratio r": ">200"}
{"smiles": "CS(=O)(=O)Cc1cc(F)cc2c(C(c3ccc(C(F)(F)F)cc3F)C3CC3C#N)c[nH]c12", "note": "(single isomer, unassigned) [Example 271-1-1, 2-({5-Fluoro-7-[(methylsulfonyl)methyl]-1H-indol-3-yl}[2-fluoro-4-(trifluoro-methyl)phenyl]methyl)cyclopropanecarbonitrile]", "Partition ratio r": ">200"}
{"smiles": "CS(=O)(=O)Cc1cccc2c(C(c3ccc(F)cc3)c3ccc(C(F)(F)F)cc3)c[nH]c12", "note": "(centres unmarked) [Example 113, 3-{(4-Fluorophenyl) [4-(trifluoromethyl)phenyl]methyl}-7-[(methylsulfonyl)methyl]-1H-indole]", "Partition ratio r": ">500"}
{"smiles": "CS(=O)(=O)Cc1cc(F)cc2c(C(c3ccc(Cl)cc3)C3CC3C#N)c[nH]c12", "note": "(single isomer, unassigned) [Example 277-1-1, 2-[(4-Chlorophenyl){5-fluoro-7-[(methylsulfonyl)methyl]-1H-indol-3-yl}methyl]cyclopropane-carbonitrile]", "Partition ratio r": ">200"}
{"smiles": "CCC(CCC#N)(c1ccc(Cl)cc1)c1c[nH]c2c(CS(C)(=O)=O)cccc12", "note": "(centres unmarked) [Example 172, 4-(4-Chlorophenyl)-4-{7-[(methylsulfonyl)methyl]-1H-indol-3-yl}hexanonitrile]", "Partition ratio r": 120}
{"smiles": "CS(=O)(=O)Cc1cccc2c(C(c3ccc(F)cc3)c3ccc(Cl)cc3F)c[nH]c12", "note": "(single isomer, unassigned) [Example 118-1, 3-[(4-Chloro-2-fluorophenyl)(4-fluorophenyl)methyl]-7-[(methylsulfonyl)methyl]-1H-indole]", "Partition ratio r": 250}
